# Values quoted from earlier work as cited in US7208580B2, “Atomic structure of the hemalbumin complex and its use in designing therapeutic compounds” (New Century Pharmaceuticals, Inc., priority 2002, dated 2007).
# Molecular target: human albumin (Homo sapiens, UniProt P02768)
# Sequence (P02768 25-609): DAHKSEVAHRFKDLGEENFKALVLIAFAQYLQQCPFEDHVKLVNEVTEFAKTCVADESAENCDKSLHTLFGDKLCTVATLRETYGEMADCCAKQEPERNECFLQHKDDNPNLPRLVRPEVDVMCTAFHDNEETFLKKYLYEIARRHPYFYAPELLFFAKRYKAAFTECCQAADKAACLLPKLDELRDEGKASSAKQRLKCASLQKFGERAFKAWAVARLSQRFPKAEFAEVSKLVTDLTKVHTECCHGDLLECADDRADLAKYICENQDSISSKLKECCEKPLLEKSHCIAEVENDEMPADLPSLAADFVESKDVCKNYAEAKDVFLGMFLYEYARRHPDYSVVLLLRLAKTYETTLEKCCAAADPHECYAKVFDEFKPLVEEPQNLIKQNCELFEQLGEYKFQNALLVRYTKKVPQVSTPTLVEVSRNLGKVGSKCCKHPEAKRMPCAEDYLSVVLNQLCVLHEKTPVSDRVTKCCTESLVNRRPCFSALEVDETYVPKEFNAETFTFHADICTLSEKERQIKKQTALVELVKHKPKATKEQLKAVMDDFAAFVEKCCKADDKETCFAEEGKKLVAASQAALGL
Compound,"binding constants for protoporphyrin at the specialized high affinity site (albumins from primates, printed as '1×10^8 Ka')","KA, single high affinity site (hemin binding to human albumin, association constant from reference (9))"
"C=CC1=C(C)c2cc3[nH]c(cc4nc(cc5[nH]c(cc1n2)c(C)c5CCC(=O)O)C(CCC(=O)O)=C4C)c(C)c3C=C [protoporphyrin, Fe^III-Protoporphyrin-IX]",~1×10^8,
Fe^III Protoporphyrin-IX (Cl) [Hemin],,1.1e+08 M⁻¹
